In publication PMC2174548 (The Journal of Cell Biology, 2000):
One block for each compound: values may come before it.

Columns and labels:
Format in all cases: cell-based
P-glycoprotein (Pgp) [1] = biological target: T1, P-glycoprotein (Pgp) (Homo sapiens, UniProt P08183); test: protection from microtubule depolymerization in PgpGFP-transfected HeLa cells
P-glycoprotein (Pgp) [2] = biological target: T1, P-glycoprotein (Pgp); test: as above; remark: listed apart in the source
P-glycoprotein (Pgp) [3] = biological target: T1, P-glycoprotein (Pgp); test: fluorescence accumulation in PgpCFP-transfected cells
P-glycoprotein (Pgp) [4] = biological target: T1, P-glycoprotein (Pgp); test: cellular drug accumulation versus Pgp expression
P-glycoprotein (Pgp) [5] = biological target: T1, P-glycoprotein (Pgp); test: fluorescence accumulation in PgpGFP-transfected cells

T1 sequence (P08183 whole entry): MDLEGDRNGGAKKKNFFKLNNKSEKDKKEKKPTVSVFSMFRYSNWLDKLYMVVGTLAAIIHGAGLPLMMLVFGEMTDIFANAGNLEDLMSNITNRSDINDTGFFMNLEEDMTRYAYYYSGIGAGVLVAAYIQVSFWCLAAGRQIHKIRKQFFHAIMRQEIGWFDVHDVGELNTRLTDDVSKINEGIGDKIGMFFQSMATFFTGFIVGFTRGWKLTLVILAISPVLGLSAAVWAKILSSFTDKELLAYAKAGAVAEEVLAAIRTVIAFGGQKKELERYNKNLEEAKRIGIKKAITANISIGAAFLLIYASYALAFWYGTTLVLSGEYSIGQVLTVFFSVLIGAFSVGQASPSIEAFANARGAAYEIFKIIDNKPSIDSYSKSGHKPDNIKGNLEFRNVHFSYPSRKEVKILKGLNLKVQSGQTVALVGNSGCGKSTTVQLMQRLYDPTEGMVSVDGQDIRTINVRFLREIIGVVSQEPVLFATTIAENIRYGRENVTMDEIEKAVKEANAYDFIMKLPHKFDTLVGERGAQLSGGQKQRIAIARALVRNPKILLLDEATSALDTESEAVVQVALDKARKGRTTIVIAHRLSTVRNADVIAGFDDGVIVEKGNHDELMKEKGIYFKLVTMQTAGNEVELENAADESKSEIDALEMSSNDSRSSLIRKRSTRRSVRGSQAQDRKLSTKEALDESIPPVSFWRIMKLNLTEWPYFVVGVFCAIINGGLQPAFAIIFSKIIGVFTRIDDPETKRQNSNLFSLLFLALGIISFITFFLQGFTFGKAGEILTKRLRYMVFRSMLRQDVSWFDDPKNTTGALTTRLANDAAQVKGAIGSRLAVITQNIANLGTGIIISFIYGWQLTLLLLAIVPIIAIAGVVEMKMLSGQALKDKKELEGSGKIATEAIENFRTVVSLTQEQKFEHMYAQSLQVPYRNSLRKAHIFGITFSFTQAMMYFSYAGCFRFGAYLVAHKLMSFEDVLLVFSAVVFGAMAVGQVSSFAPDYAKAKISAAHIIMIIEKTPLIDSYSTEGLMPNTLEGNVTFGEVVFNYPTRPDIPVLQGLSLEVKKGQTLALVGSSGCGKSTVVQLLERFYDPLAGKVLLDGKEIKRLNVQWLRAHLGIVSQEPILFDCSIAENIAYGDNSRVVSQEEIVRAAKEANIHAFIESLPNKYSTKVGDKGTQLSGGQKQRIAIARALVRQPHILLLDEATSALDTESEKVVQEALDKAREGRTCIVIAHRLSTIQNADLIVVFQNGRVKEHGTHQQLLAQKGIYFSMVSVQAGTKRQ

protection from microtubule depolymerization in PgpGFP-transfected HeLa cells (2) (P-glycoprotein (Pgp) [1]): 25–125 fold
Compound: CC[C@]1(O)C[C@H]2CN(CCc3c([nH]c4ccccc34)[C@@](C(=O)OC)(c3cc4c(cc3OC)N(C=O)[C@H]3[C@@](O)(C(=O)OC)[C@H](OC(C)=O)[C@]5(CC)C=CCN6CC[C@]43[C@@H]65)C2)C1 [vincristine]

Compound: COc1cc2c(c(OC)c1OC)-c1ccc(OC)c(=O)cc1[C@@H](NC(C)=O)CC2 [colchicine]
Fold resistance (P-glycoprotein (Pgp) [2]): 5–25 fold

Effects on fluorescence (P-glycoprotein (Pgp) [3]): > 10 fold
Compound: CC(=O)OCOC(=O)CN(CC(=O)OCOC(C)=O)Cc1cc2c(cc1OC(C)=O)Oc1cc(OC(C)=O)c(CN(CC(=O)OCOC(C)=O)CC(=O)OCOC(C)=O)cc1C21OC(=O)c2ccccc21 [Calcein AM]

Compound: O=C1c2c(O)ccc(O)c2C(=O)c2c(NCCNCCO)ccc(NCCNCCO)c21 [mitoxantrone]
cellular drug accumulation versus Pgp expression (data not shown) (P-glycoprotein (Pgp) [4]): the level of Pgp expression was inversely related to the cellular accumulation of mitoxantrone

Effects on fluorescence (P-glycoprotein (Pgp) [5]): > 10 fold
Compound: CC(=O)OCOC(=O)CN(CC(=O)OCOC(C)=O)c1ccc(C)cc1OCCOc1cc2cc(-c3ncc(C(=O)OCOC(C)=O)o3)oc2cc1N(CC(=O)OCOC(C)=O)CC(=O)OCOC(C)=O [Fura-2 AM]
